Laboratory results taken from patent publication US20120283216A1, “FUNGICIDAL 2-(BICYCLIC ARYLOXY)CARBOXAMIDES” (priority 2009, published 2012).

How the values were obtained:
Type in all cases: in vivo
[1] = system: Septoria tritici; assay: Test B: wheat leaf blotch, preventive spray on wheat seedlings, visual disease rating; conditions: preventive spray at 40 ppm, rated after 48 h + 19 days; for pest or weed control at 40 ppm: Zymoseptoria tritici, 504 h, read-out: Test B disease control rating (100 = 100% disease control, 0 = no disease control relative to the controls)
Text: (§1) General protocol for preparing test suspensions for Tests A-C: the test compounds were first dissolved in acetone in an amount equal to 11% of the final volume and then suspended at the desired concentration (in ppm) in acetone and purified water (50/50 mix by volume) containing 250 ppm of the surfactant Trem® 014 (polyhydric alcohol esters). The resulting test suspensions were then used in Tests A-C. Spraying a 40 ppm test suspension to the point of run-off on the test plants was the equivalent of a rate of 800 g/ha. The test suspension was sprayed to the point of run-off on wheat seedlings. The following day the seedlings were inoculated with a spore suspension of Septoria tritici (the causal agent of wheat leaf blotch) and incubated in a saturated atmosphere at 20° C. for 48 h, and then moved to a growth chamber at 20° C. for 19 days, after which time disease ratings were visually made. Results for Tests A-C are given in Table A. In the Table, a rating of 100 indicates 100% disease control and a rating of 0 indicates no disease control (relative to the controls). A dash (-) indicates no test results. All results are from applications of 40 ppm.

[2] = system: Blumeria graminis f. sp. tritici; assay: Test A: wheat powdery mildew, preventive spray on wheat seedlings, visual disease rating; conditions: preventive spray at 40 ppm, rated 8 days after inoculation; for pest or weed control at 40 ppm: Blumeria graminis, 192 h, read-out: Test A disease control rating (100 = 100% disease control, 0 = no disease control relative to the controls)
Text: as §1, with “spore dust” for “spore suspension”, “of Blumeria graminis f. sp. tritici,” for “of Septoria tritici”, “wheat powdery mildew)” for “wheat leaf blotch)”, “in” for “in a saturated atmosphere at 20° C. for 48 h, and then moved to”, “for 8” for “for 19”

[3] = system: Botrytis cinerea; assay: Test C: tomato botrytis, preventive spray on tomato seedlings, visual disease rating; conditions: preventive spray at 40 ppm, rated after 48 h + 3 days; for pest or weed control at 40 ppm: Botrytis cinerea, 120 h, read-out: Test C disease control rating (100 = 100% disease control, 0 = no disease control relative to the controls)
Text: General protocol for preparing test suspensions for Tests A-C: the test compounds were first dissolved in acetone in an amount equal to 11% of the final volume and then suspended at the desired concentration (in ppm) in acetone and purified water (50/50 mix by volume) containing 250 ppm of the surfactant Trem® 014 (polyhydric alcohol esters). The resulting test suspensions were then used in Tests A-C. Spraying a 40 ppm test suspension to the point of run-off on the test plants was the equivalent of a rate of 800 g/ha.
The test suspension was sprayed to the point of run-off on tomato seedlings. The following day the seedlings were inoculated with a spore suspension of Botrytis cinerea (the causal agent of tomato botrytis) and incubated in saturated atmosphere at 20° C. for 48 h, and then moved to a growth chamber at 27° C. for 3 additional days, after which time disease ratings were visually made.
Results for Tests A-C are given in Table A. In the Table, a rating of 100 indicates 100% disease control and a rating of 0 indicates no disease control (relative to the controls). A dash (-) indicates no test results. All results are from applications of 40 ppm.

Row | SMILES | Test B disease control rating (100 = 100% disease control, 0 = no disease control relative to the controls) [1] | Test A disease control rating (100 = 100% disease control, 0 = no disease control relative to the controls) [2] | Test C disease control rating (100 = 100% disease control, 0 = no disease control relative to the controls) [3] | pest or weed control at 40 ppm [1] | pest or weed control at 40 ppm [2] | pest or weed control at 40 ppm [3]
1 | CCC(Oc1cnc2ccc(F)cc2c1)C(=O)NC(C)(C)COC (stereo not drawn) [Compound 54] | 71% | 0% | 0% | – | – | –
2 | CCOCC(C)(C)NC(=O)C(CC)Oc1cnc2ccc(I)cc2c1 (stereo not drawn) [Compound 55] | 99% | 96% | 86% | – | – | –
3 | CCC(Oc1cnc2c(Cl)cc(Cl)cc2c1)C(=O)NC(C)(C)COC (stereo not drawn) [Compound 56] | 99% | 0% | 99% | – | – | –
4 | CCC(Oc1cnc2c(Cl)cc(Cl)cc2c1)C(=O)NC(C)(C)C (stereo not drawn) [Compound 57] | – | – | – | 99% | 0% | 99%
5 | CCC(Oc1cnc2ccc(Br)cc2c1)C(=O)NC(C)(C)COCOC (stereo not drawn) [Compound 58] | 100% | 99% | 99% | – | – | –
6 | COCC(C)(C)NC(=O)C(C)Oc1cnc2ccc(I)cc2c1 (stereo not drawn) [Compound 59, 2-[(6-iodo-3-quinolinyl)oxy]-N-(2-methoxy-1,1-dimethylethyl)propanamide] | – | – | – | 95% | 0% | 99%
7 | COCC(C)(C)NC(=O)C(C)Oc1cnc2ccc(Br)cc2c1 (stereo not drawn) [Compound 60] | 74% | 0% | 95% | – | – | –
8 | C#CC(C)(C)NC(=O)C(OC)Oc1cnc2ccc(I)cc2c1 (stereo not drawn) [Compound 63, N-(1,1-dimethyl-2-propyn-1-yl)-2-[(6-iodo-3-quinolinyl)oxy]-2-methoxy-acetamide] | – | – | – | 99% | 93% | 99%
9 | COC(Oc1cnc2ccc(I)cc2c1)C(=O)NC1(C)CC1 (stereo not drawn) [Compound 64] | 99% | 84% | 100% | – | – | –
10 | COCC(C)(C)NC(=O)C(OC)Oc1cnc2ccc(I)cc2c1 (stereo not drawn) [Compound 65] | 99% | 81% | 100% | – | – | –
11 | CCC(Oc1cc2cc(F)ccc2cn1)C(=O)NC(C)(C)C (stereo not drawn) [Compound 66] | 0% | 79% | 88% | – | – | –
12 | CCC(Oc1cc2cc(Br)ccc2cn1)C(=O)NC(C)(C)C (stereo not drawn) [Compound 67] | 77% | 92% | 100% | – | – | –
13 | CCOc1ccc2ccc(OC(OC)C(=O)NC(C)(C)C#N)cc2c1 (stereo not drawn) [Compound 68] | 100% | 100% | 100% | – | – | –
14 | C#CC(C)(C)NC(=O)C(OC)Oc1ccc2ccc(OCC)cc2c1 (stereo not drawn) [Compound 69, N-(1,1-dimethyl-2-propyn-1-yl)-2-[(7-ethoxy-2-naphthalenyl)oxy]-2-methoxyacetamide] | – | – | – | 100% | 100% | 100%
15 | CCOc1ccc2ccc(OC(OC)C(=O)NC(C)(C)COC)cc2c1 (stereo not drawn) [Compound 70] | 100% | 100% | 98% | – | – | –
16 | CCC(Oc1ccc2ccc(OCOC)cc2c1)C(=O)NC(C)(C)C (stereo not drawn) [Compound 71] | 99% | 81% | 99% | – | – | –
17 | CCC(Oc1ccc2ccc(OCOC)cc2c1)C(=O)NC(C)(C)C#N (stereo not drawn) [Compound 72] | 99% | 0% | 100% | – | – | –
18 | C#CC(C)(C)NC(=O)C(CC)Oc1ccc2ccc(OCOC)cc2c1 (stereo not drawn) [Compound 73] | 100% | 0% | 99% | – | – | –
19 | CCOc1ccc2ccc(OC(CC)C(=O)NC(C)(C)C)cc2c1 (stereo not drawn) [Compound 74, N-(1,1-dimethylethyl)-2-[(7-ethoxy-2-naphthalenyl)oxy]butanamide] | – | – | – | 100% | 100% | 100%
20 | CCOc1ccc2ccc(OC(CC)C(=O)NC(C)(C)C#N)cc2c1 (stereo not drawn) [Compound 75, N-(1-cyano-1-methylethyl)-2-[(7-ethoxy-2-naphthalenyl)oxy]butanamide] | – | – | – | 100% | 100% | 100%
21 | C#CC(C)(C)NC(=O)C(CC)Oc1ccc2ccc(OCC)cc2c1 (stereo not drawn) [Compound 76, N-(1,1-dimethyl-2-propyn-1-yl)-2-[(7-ethoxy-2-naphthalenyl)oxy]butanamide] | – | – | – | 100% | 100% | 100%
22 | CCC(Oc1ccc2ccc(C(F)F)cc2c1)C(=O)NC(C)(C)C#N (stereo not drawn) [Compound 77] | 99% | 0% | 67% | – | – | –
23 | C#CC(C)(C)NC(=O)C(CC)Oc1ccc2ccc(C(F)F)cc2c1 (stereo not drawn) [Compound 78] | 88% | 81% | 99% | – | – | –
24 | COC(Oc1ccc2ccc(C(F)F)cc2c1)C(=O)NC(C)(C)C#N (stereo not drawn) [Compound 79] | 98% | 72% | 99% | – | – | –
25 | C#CC(C)(C)NC(=O)C(OC)Oc1ccc2ccc(C(F)F)cc2c1 (stereo not drawn) [Compound 80] | 93% | 0% | 100% | – | – | –
26 | COc1ccc2ccc(OC(OC)C(=O)NC(C)(C)C#N)cc2c1 (stereo not drawn) [Compound 81] | 99% | 0% | 100% | – | – | –
